Assay results: publication PMC5355302, “Arg-Leu-Tyr-Glu tetrapeptide inhibits tumor progression by suppressing angiogenesis and vascular permeability via VEGF receptor-2 antagonism” (Oncotarget, 2016)
One block for each molecule: values may come before it. Where a SMILES comes first, the peptide text is derived from it. Where no end group is shown, it is not given here.

Assays:
[1] = system: endothelial cells; set-up: method as in PMID 15013002; conditions: cited from earlier work
[2] = system: HCT116 tumors; assay: HCT116 human colon cancer xenograft in nude mice; format: in vivo, mouse; conditions: RLYE 0.5 mg/kg/day i.p., CPT-11 17 mg/kg every 5th day, alone or combined, n = 7 per group
Experimental: Figure 7 RLYE inhibits tumor growth and metastasis by suppressing tumor angiogenesis A. Representative tumors isolated from 29-days-old B16F1 tumor-bearing C57BL/6J mice injected i.p. with saline or RLYE (1 mg/kg) every day. B. Tumor weight on day 29 after injection of B16F1 cells (n = 10 mice per group). C. […] D. Representative images for metastatic nodules of the lungs isolated from C57BL/6J mice, which were injected i.v. with B16F10 melanoma cells and treated with saline or RLYE for 3 weeks. E. Quantification of the number of lung metastatic nodules. […] Representative tumors from 30-day-old HCT116 tumor-bearing mice. (G) Tumor burden was measured every 3 days (n = 8 mice per group). (H) Functional vascularization was quantified by measuring hemoglobin concentration in HCT116 tumor tissues (n = 5). […]
Figure 8 RLYE inhibits vascular leakage and enhances tumor chemosensitivity A. Endothelial cell permeability was determined by diffusion of [^14C]-sucrose through HUVEC monolayers treated with 20 ng/ml of VEGF alone or in combination with RLYE (n = 3). B. Phosphorylation of VE-cadherin was determined in cell lysates of HUVECs treated with 20 ng/ml of VEGF alone or in combination with RLYE. […] Immunostaining of VE-cadherin in endothelial monolayer was determined by confocal microscopy. […] Tumor vascular leakage was determined by the Evans blue method (E and F) or FITC-dextran image assay (G and H). […]

[3] = system: HUVECs; assay: MTT cell viability, HUVECs; format: cell-based, human; conditions: 24 h
Experimental: (§1) Mouse melanoma B16F1 and B16F10 cells and human HCT116 colon cancer cells were obtained from American Type Culture Collection (Manassas, VA) and cultured in RPMI medium supplemented with 10% FBS, 1 mM sodium pyruvate, 10 mM 4-(2-hydroxyethyl)-1-piperazineethanesulfonic acid, and 100 U/ml penicillin-streptomycin in a humidified atmosphere of 5% CO2 at 37°C. Human umbilical vein endothelial cells (HUVECs) were maintained and cultured in M199 as described previously, and only passages 2-7 were used for all experiments. Human multiple myeloma IM-9 and RPMI 8226 cells were obtained from Korean Cell Line Bank (Seoul, Korea). The cells were cultured in RPMI-1640 medium in a humidified CO2 incubator. Cell viability or cytotoxicity was evaluated by 3-[4,5-cimethylthiazol-2-yl]-2,5-diphenyl tetrazolium bromide (MTT, Sigma-Aldrich) assay.
(§2) www.impactjournals.com/oncotarget/ Oncotarget, Supplementary Materials 2016
(§3) B. cells were treated the indicated concentration of RLYE for 24 h. Cell viability was determined by MTT assay. […]

[4] = system: HCT116 cells; assay: MTT cell viability, HCT116 cells; format: cell-based, human; conditions: up to 30 nM, 24 h
Experimental: as §1, §2, §3

[5] = half-life in culture medium; format: in vitro ADME; conditions: M199 culture medium with 10% heat-inactivated FBS; unpublished data
[6] = half-life in blood; format: in vivo; conditions: unpublished data
[7] = system: VEGFR-2; conditions: read-out: IC50 for VEGFR-2; endothelial cell culture conditions; cited from earlier work
[8] = system: HUVECs; assay: confocal microscopy of FITC-RLYE binding to HUVECs; set-up: species or system human
Experimental: Figure 5 RLYE binds to endothelial cells through binding to VEGFR-2 A and B. HUVECs were incubated with FITC-conjugated RLYE (RL, 15 nM) before or after treatment with VEGF-A (VE, 100 ng) for 30 min. Cells were analyzed by flow cytometry (A) and quantified (B). Data are the means ± SD (n = 5). **P < 0.01 versus RLYE alone. C and D. HUVEC lysates were incubated with biotinylated RLYE (Bio-RLYE, 0.15 or 1.5 nM), followed by precipitation with streptavidin-agarose beads. The red arrow indicates VEGFR-2 protein bands on a longer exposure film. The precipitates were separated by SDS-PAGE. VEGFR-2 or VEGFR-1 expression was assessed by Western blot analysis. E. HUVECs were treated with or without VEGF-A (10 ng/ml) for 30 min, followed by incubation with FITC-conjugated RLYE (100 ng/ml, green). Cells were incubated with a TRITC-conjugated CD31 antibody (1:100, red) or DAPI (blue). […]
For immunocytochemistry, HUVECs were grown to confluence on glass coverslips coated with 2% gelatin and treated with or without VEGF-A (10 ng/ml) for 30 min, followed by incubation with FITC-RLYE (100 ng/ml). […] Images were photographed and analyzed using a confocal fluorescence microscope. Nuclear staining was performed with 4’, 6-diamidino-2-phenylindole (DAPI, 1 ng/ml), and apoptotic cells were detected using a terminal deoxynucleotidyl transferase dUTP nick end labeling (TUNEL) kit (Roche, Korea).

[9] = system: HUVECs; assay: FACS binding of FITC-conjugated RLYE to HUVECs; set-up: species or system human; conditions: FITC-conjugated RLYE 15 nM, n = 5
Experimental: Figure 5 RLYE binds to endothelial cells through binding to VEGFR-2 A and B. HUVECs were incubated with FITC-conjugated RLYE (RL, 15 nM) before or after treatment with VEGF-A (VE, 100 ng) for 30 min. Cells were analyzed by flow cytometry (A) and quantified (B). Data are the means ± SD (n = 5). **P < 0.01 versus RLYE alone. C and D. HUVEC lysates were incubated with biotinylated RLYE (Bio-RLYE, 0.15 or 1.5 nM), followed by precipitation with streptavidin-agarose beads. The red arrow indicates VEGFR-2 protein bands on a longer exposure film. The precipitates were separated by SDS-PAGE. VEGFR-2 or VEGFR-1 expression was assessed by Western blot analysis. E. HUVECs were treated with or without VEGF-A (10 ng/ml) for 30 min, followed by incubation with FITC-conjugated RLYE (100 ng/ml, green). Cells were incubated with a TRITC-conjugated CD31 antibody (1:100, red) or DAPI (blue). Confocal microscopy was performed for analyzing binding of RLYE on HUVECs. Scale bar, 10 μm.
HUVECs cultured for 24 h after plating in 60 mm-culture dishes. Cells from subconfluent cultures were gently detached from wells with PBS containing 5 mM EDTA, washed three times with PBS, and resuspended in PBS containing 2% FBS/0.1% bovine serum albumin. Thereafter, they were incubated with FITC-conjugated RLYE (15 nM) before or after treatment with VEGF (100 ng/ml) for 30 min on ice, fixed in 2% paraformaldehyde, and analyzed by flow cytometry in a fluorescence-activated cell sorter (FACSCalibur, Becton Dickinson, Franklin Lakes, NJ).

[10] = system: VEGF-A; conditions: read-out: IC50 for VEGF-A; endothelial cell culture conditions; cited from earlier work
[11] = system: VEGF-A; conditions: cited from earlier work
From the text: Therefore, the VEGF-A/VEGFR-2 system is widely considered a main target of the therapeutic treatment for tumor angiogenesis. Ligation of VEGFR-2 triggers strong proangiogenic signals including p38MAPK/ERK, Src/FAK, and Akt/eNOS through VEGFR-2 phosphorylation, which promote angiogenesis and VEGFR-2 internalization.

[12] = molecular target: human recombinant VEGF receptor-2 (rhVEGFR-2) (human) (UniProt P35968); assay: SPR; rhVEGFR-2 immobilised on an activated CM5 chip; RLYE at different concentrations flowed in HBS-EP (10 mM Hepes, 150 mM NaCl, 3 mM EDTA, 0.005% Tween-20) at 25 μl/min, 120 sec injection; Kd from a steady state binding model
Chain of human recombinant VEGF receptor-2 (rhVEGFR-2) (human) (P35968 20-764): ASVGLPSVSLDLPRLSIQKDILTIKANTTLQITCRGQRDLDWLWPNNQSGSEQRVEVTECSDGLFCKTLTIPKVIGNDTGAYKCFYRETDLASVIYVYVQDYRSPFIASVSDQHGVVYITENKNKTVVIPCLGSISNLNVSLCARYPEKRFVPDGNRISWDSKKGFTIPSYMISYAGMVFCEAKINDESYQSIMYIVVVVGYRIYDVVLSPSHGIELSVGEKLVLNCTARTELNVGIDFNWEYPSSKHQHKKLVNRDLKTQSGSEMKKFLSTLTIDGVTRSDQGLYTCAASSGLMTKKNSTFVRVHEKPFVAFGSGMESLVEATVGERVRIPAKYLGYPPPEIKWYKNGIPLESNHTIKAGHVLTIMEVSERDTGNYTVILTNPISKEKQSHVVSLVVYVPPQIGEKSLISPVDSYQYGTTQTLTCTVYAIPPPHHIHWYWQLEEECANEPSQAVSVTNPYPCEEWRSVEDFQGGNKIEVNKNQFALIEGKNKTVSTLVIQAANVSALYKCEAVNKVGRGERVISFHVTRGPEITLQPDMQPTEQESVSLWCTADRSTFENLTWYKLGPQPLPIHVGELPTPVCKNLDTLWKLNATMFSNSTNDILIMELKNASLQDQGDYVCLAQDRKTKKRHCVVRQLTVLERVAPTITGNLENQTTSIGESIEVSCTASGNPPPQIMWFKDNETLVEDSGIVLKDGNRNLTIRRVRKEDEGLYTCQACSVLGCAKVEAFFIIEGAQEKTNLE

Molecule: Lys-Leu-Tyr-Asp [KLYD, tetrapeptide derived from the kringle 5 of plasminogen]
- inhibitory effect on endothelial cell proliferation [1]: potent inhibitory effect

Molecule: CCc1c2c(nc3ccc(OC(=O)N4CCC(N5CCCCC5)CC4)cc13)-c1cc3c(c(=O)n1C2)COC(=O)[C@]3(O)CC [CPT-11, irinotecan]
- tumor growth in mice bearing HCT116 colon tumor [2]: significantly inhibited tumor growth

- half-life [5]: > 18 h
- half-life in blood [6]: 1.2 h
Molecule: CC(C)C[C@H](NC(=O)[C@@H](N)CCCNC(=N)N)C(=O)N[C@@H](Cc1ccc(O)cc1)C(=O)N[C@@H](CCC(=O)O)C(=O)O [RLYE, Arg-Leu-Tyr-Glu] (H-RLYE-OH)
- cytotoxicity against HUVECs [3]: did not induce any cytotoxicity
- cytotoxic effect on cultured HCT116 cells [4]: no cytotoxic effect

Molecule: ramucirumab: fully humanized monoclonal antibody bound to the extracellular domain of VEGFR-2
- IC50 [7]: 1 to 2 nM

- binding to the surface of HUVECs (confocal) ([8]; FITC-conjugated RLYE 100 ng/ml): bound
- binding to the surface of HUVECs after pretreatment with VEGF-A (confocal) ([8]; VEGF-A 10 ng/ml 30 min, then FITC-conjugated RLYE 100 ng/ml): effectively blocked
- binding to the surface of control HUVECs ([9]; 30 min on ice, flow cytometry): bound
- blocking of binding to HUVECs by post-incubation with VEGF-A ([9]; VEGF 100 ng/ml after the peptide): not
- binding to HUVECs after pre-incubation with VEGF-A ([9]; VEGF 100 ng/ml before the peptide): blocked
Molecule: FITC-conjugated RLYE: fluorescein isothiocynate (FITC)-conjugated RLYE, purchased from Peptron (also: FITC conjugated, position not given here)

Molecule: bevacizumab: anti-VEGF antibody
- IC50 [10]: 0.15 nM

Molecule: aflibercept: soluble decoy VEGFR-1
- affinity to VEGF-A relative to bevacizumab [11]: several hundred-fold greater

- Kd [12]: 9000 nM
Molecule: RLYE [Arg-Leu-Tyr-Glu tetrapeptide (RLYE)]
